From US20150299796A1, “PREDICTION OF TREATMENT RESPONSE TO JAK/STAT INHIBITOR” (priority 2012, published 2015)

Legend:
[1] = test system: pSTAT5; assay: Phospho-STAT5 western blot in hematologic tumor cell lines after treatment; format: cell-based; conditions: 0.2 μM or 1 μM, 4 hr and 24 hr
Procedure: (§1) […] hematologic tumor cell lines (5 positive for pSTAT5 (AML-193, Hel 92.1.7, Set2, TF-1 and UKE-1) and 4 negative for pSTAT5 (RPM18226, U937, Relt and PL-21) were treated with (R)-3-cyclopentyl-3-[4-(7H-pyrrolo[2,3-d]pyrimidin-4-yl)-1H-pyrazol-1-yl]propanenitrilem, 0.2 μM or 1 μM, and samples were collected at 4 hr and 24 hr after treatment. Phospho-STAT5 was examined by western blot analysis, and the expression of the four signature genes was determined by qPCR. The RNA expression level (ΔCt) of each individual gene in the signature was determined by subtracting the average Ct for the signature gene from the average Ct of the two housekeeper genes (GUSB and TBP). For the normalized relative expression levels the DMSO control treatment ΔCt were set to one and all other treatments the gene Ct values are relative to this value.

[2] = test system: four signature genes (PIM1, CISH, SOCS2, ID1); assay: qPCR expression of the four signature genes in hematologic tumor cell lines after treatment; format: cell-based; conditions: 0.2 μM or 1 μM, 4 hr and 24 hr
Procedure: as §1

[3] = test system: UKE-1 tumor xenograft; assay: UKE-1 tumor xenograft study, modulation of 4-gene signature in tumor; format: in vivo, female NOD.SCID mice; conditions: single dose P.O. 60 mg/kg; tumor samples at 4 and 24 hours (FIG. 6)
Procedure: The modulation of gene signature by (R)-3-cyclopentyl-3-[4-(7H-pyrrolo[2,3-d]pyrimidin-4-yl)-1H-pyrazol-1-yl]propanenitrile (ruxolitinib) was further examined in vivo. UKE-1 cells were implanted in female NOD.SCID mice (Harlan) at 1x10e7 cells/mouse. Single dose of (R)-3-cyclopentyl-3-[4-(7H-pyrrolo[2,3-d]pyrimidin-4-yl)-1H-pyrazol-1-yl]propanenitrile was administered P.O. at 60 mg/kg when tumors reached ˜500 mg. Tumor samples were collected at 4 and 24 hours after treatment. The modulation of pSTAT5 in tumor lysate was examined by Western.

[4] = pSTAT5 negative cell lines (RPMI 8226 in FIG. 2A)
[5] = pSTAT5 positive cell lines (TF-1 in FIG. 2B)

For N#CC[C@H](C1CCCC1)n1cc(-c2ncnc3[nH]ccc23)cn1 [(R)-3-cyclopentyl-3-[4-(7H-pyrrolo[2,3-d]pyrimidin-4-yl)-1H-pyrazol-1-yl]propanenitrile], the pSTAT5 modulation [1, 4] was “no clear effect”, the pSTAT5 modulation [1, 5] was “down-modulated pSTAT5” and the “changes in signature gene expression” value [2, 4] was “no clear effect”. For the same molecule, the “expression of the signature genes” value [2, 5] was “corresponding reduction of the expression of the signature genes” and the “modulation of 4-gene signature in tumor” value [3] was “consistent to that observed in vitro”.
